Structures can show the parent of a compound that is named as a salt. Where two headings read alike, the source gives them in different places.
Tests used:
[1] = system: Meerschweinchen-Papillarmuskel; experiment: Contraction force of the heart on papillary muscle (negative inotropy); type: cell-based; conditions: for IC20: concentration that reduces contraction of the papillary muscle by 20 %, read-out: C20 CF
Description: Die Wirkung auf die Kontraktionskraft des Herzens wurde am Meerschweinchen-Papillarmuskel untersucht. Hämodynamische Studien wurden bei gesunden, wie auch akut infarzierten Hunden durchgeführt.

[2] = system: Purkinje-Fasern aus Hundeherzen; experiment: Electrophysiological studies on Purkinje fibres (Vmax); type: cell-based, Hund; conditions: for IC20: purkinje, read-out: C20 Vmax
Description: Die antiarrhythmische Wirksamkeit der erfindungsgemäßen Verbindungen wurde sowohl anhand von elektrophysiologischen Studien an Purkinje-Fasern aus Hundeherzen sowie mit Hilfe von Ouabain-induzierten ventrikulären Tachykardien bei Hunden bestimmt. […]
Als zusätzliches Kriterium wurde der Vorzeitigkeitsindex (Prematurity-Faktor) bestimmt, der die erwünschte Wirksamkeit der erfindungsgemäßen Verbindungen bei vorzeitigen Extrasystolen charakterisiert.

[3] = Acute toxicity LD50, rat i.v.; conditions: in vivo, iv, Ratte (i.v.), read-out: LD₅₀
Description: (§1) Dies ergibt sich aus einem Vergleich der LD₅₀-Werte bei Ratten und Mäusen, die in Tabelle (II) zusammengefaßt sind. Tabelle I

[4] = Acute toxicity LD50, mouse i.v.; conditions: in vivo, iv, Maus (i.v.), read-out: LD₅₀
Description: as §1

[5] = (% of control Vmax at cycle length 2000) / (% of control Vmax at cycle length 500) at C20 Vmax
[6] = (% of control Vmax at premature extrasystoles) / (% of control Vmax at a normal beat) at Vmax

SMILES | C20 CF [1] | C20 Vmax [2] | Prematurity Faktor Vmax [2] | Rate-Faktor von Vmax [2] | IC20 [1] [µM] | Rate-Faktor von Vmax [2, 5] | Prematurity Faktor Vmax [2, 6] | IC20 [2] [µM] | LD50 [3] [mg/kg] | LD50 [4] [mg/kg]
CCCNCC(O)COc1ccccc1C(=O)CCc1ccccc1 (centres unmarked) [A, Propafenon, reference compound] | 5,3 µM | 3,7 µM | 0,97 | 1,08 | – | – | – | – | – | –
CCCNCC(O)COc1ccccc1CCC(=O)c1ccc(OC)c(OC)c1.Cl (centres unmarked) [Beispiel 1, 1-(3,4-Dimethoxyphenyl)-3-[2′-(2-hydroxy-3-n-propylaminopropoxy)-phenyl]-1-propanon-hydrochlorid] | – | – | – | – | 15 | 5,00 | 0,50 | 12.5 | 17 | 16
CCC(C)(C)NCC(O)COc1ccccc1CCC(=O)c1ccc(OC)c(OC)c1.Cl (centres unmarked) [Beispiel 2, 1-(3,4-Dimethoxyphenyl)-3-[2′-(2-hydroxy-3-tert.-pentylamino-propoxy)-phenyl]-1-propanon-hydrochlorid] | – | – | – | – | 8 | 1,27 | 1,15 | 3.6 | – | –
COc1ccc(C(=O)CCc2ccccc2OCC(O)CNC(C)C)cc1OC.Cl (centres unmarked) [Beispiel 4, 1-(3,4-Dimethoxyphenyl)-3-[2′-(2-hydroxy-3-isopropylamino-propoxy)-phenyl]-1-propanon-hydrochlorid] | – | – | – | – | 22 | 1,13 | 1,01 | 4.8 | – | –
COc1ccc(C(=O)CCc2ccccc2OCC(O)CNC(C)(C)C)cc1OC.Cl (centres unmarked) [Beispiel 5, 1-(3,4-Dimethoxyphenyl)-3-[2′-(2-hydroxy-3-tert.-butylamino-propoxy)-phenyl]-1-propanon-hydrochlorid] | – | – | – | – | 12 | 1,39 | 0,98 | 4.4 | – | –
COc1ccc(C(=O)CCc2ccccc2OCC(O)CN2CCCCC2)cc1OC (centres unmarked) [Beispiel 6] | 20,0 µM | 11,3 µM | 0,70 | 1,32 | – | – | – | – | – | –
COc1ccc(C(=O)CCc2ccccc2OCC(O)CNCC(C)O)cc1OC (centres unmarked) [Beispiel 7, 1-(3,4-Dimethoxyphenyl)-3-[2′-(2-hydroxy-3(2˝-hydroxy-propylamino)-propoxy)-phenyl]-1-propanon-hydrochlorid] | 18,0 µM | 5,7 µM | 0,98 | 1,39 | – | – | – | – | – | –
COc1ccc(C(=O)CCc2ccccc2OCC(O)CNCCO)cc1OC (centres unmarked) [Beispiel 8, 1-(3,4-Dimethoxyphenyl)-3-[2′-(2-hydroxy-3(2˝-hydroxy-ethylamino)-propoxy)-phenyl]-1-propanon-hydrochlorid] | 13,0 µM | 8,3 µM | 0,97 | 1,34 | – | – | – | – | – | –
CCC(CO)NCC(O)COc1ccccc1CCC(=O)c1ccc(OC)c(OC)c1 (centres unmarked) [Beispiel 9, 1-(3,4-Dimethoxyphenyl)-3-[2′-(2-hydroxy-3-(1˝-hydroxy-but-2-ylamino)-propoxy)-phenyl]-1-propanon-oxalat] | 25,0 µM | 10,2 µM | 0,97 | 1,30 | – | – | – | – | – | –
COc1cc(C(=O)CCc2ccccc2OCC(O)CNC(C)C)cc(OC)c1OC.Cl (centres unmarked) [Beispiel 12, 1-(3,4,5-Trimethoxyphenyl)-3-[2′-(2-hydroxy-3-isopropylamino-propoxy)-phenyl]-1-propanon-hydrochlorid] | – | – | – | – | 18 | 1,14 | 0,90 | 5.8 | – | –
COc1cc(C(=O)CCc2ccccc2OCC(O)CNC2CCCCC2)cc(OC)c1OC.Cl (centres unmarked) [Beispiel 16, 1-(3,4,5-Trimethoxyphenyl)-3-[2′-(2-hydroxy-3-cyclohexylamino-propoxy)-phenyl]-1-propanon-hydrochlorid] | – | – | – | – | 9 | 5,00 | 0,50 | 11.9 | – | –
COc1cccc(C(=O)CCc2ccccc2OCC(O)CNC(C)C)c1.Cl (centres unmarked) [Beispiel 24, 1-(3-Methoxyphenyl)-3-[2′-(2-hydroxy-3-isopropylamino-propoxy)-phenyl]-1-propanon-hydrochlorid] | – | – | – | – | 10 | 1,15 | 1,01 | 1.6 | – | –
CCCNCC(O)COc1ccccc1CCC(=O)c1cccc(OC)c1.Cl (centres unmarked) [Beispiel 26, 1-(3-Methoxyphenyl)-3-[2′-(2-hydroxy-3-n-propylamino-propoxy)-phenyl]-1-propanon-hydrochlorid] | – | – | – | – | 3 | 1,16 | 0,93 | 1.7 | – | –
COc1cccc(C(=O)CCc2ccccc2OCC(O)CNC(C)(C)C)c1.Cl (centres unmarked) [Beispiel 27, 1-(3-Methoxyphenyl)-3-[2′-(2-hydroxy-3-tert.-butylamino-propoxy)-phenyl]-1-propanon-hydrochlorid] | – | – | – | – | 4 | 0,99 | 1,24 | 1.6 | – | –
COc1ccccc1C(=O)CCc1ccccc1OCC(O)CNC(C)(C)C.Cl (centres unmarked) [Beispiel 38, 1-(2-Methoxyphenyl)-3-[2′-(2-hydroxy-3-tert.-butylamino-propoxy)-phenyl]-1-propanon-hydrochlorid] | – | – | – | – | 7 | 1,30 | 0,97 | 1.7 | 15 | 17
Cc1ccc(C(=O)CCc2ccccc2OCC(O)CNC(C)(C)C)cc1.Cl (centres unmarked) [Beispiel 44, 1-(4-Methylphenyl)-3-[2′-(2-hydroxy-3-tert.-butylamino-propoxy)-phenyl]-1-propanon-hydrochlorid] | – | – | – | – | 6 | 1,11 | 0,99 | 2.6 | – | –
Cl.O=C(CCc1ccccc1OCC(O)CNC1CCCCC1)c1ccccc1 (centres unmarked) [Beispiel 46, 1-Phenyl,-3-[2′-(2-hydroxy-3-cyclohexylamino-propoxy)-phenyl]-1-propanon-hydrochlorid] | – | – | – | – | 2 | 2,50 | 0,92 | 2.2 | – | –
Cl.O=C(CCc1ccccc1OCC(O)CN1CCCCC1)c1ccccc1 (centres unmarked) [Beispiel 47, 1-Phenyl-3-[2′-(2-hydroxy-3-piperidino-propoxy)-phenyl]-1-propanon-hydrochlorid] | – | – | – | – | 2 | 1,08 | 0,99 | 0.3 | – | –
CC(C)(C)NCC(O)COc1ccccc1CCC(=O)c1ccccc1.Cl (centres unmarked) [Beispiel 48, 1-Phenyl-3-[2′-(2-hydroxy-3-tert.-butylamino-propoxy)-phenyl]-1-propanon-hydrochlorid] | – | – | – | – | 3 | 1,18 | 0,91 | 1 | – | –
